Values quoted from earlier work in paper PMC4360375 (Journal of Medicinal Chemistry, 2015).

Test system: GABA uptake, rat synaptosome
Details: literature data set; ref 10.1016/S0968-0896(01)00148-1; cited from earlier work

First: O=C(O)[C@@H]1CCCN(CCO/N=C(\c2ccccc2)C2CC2)C1 [An_2001/6_14, O(\N=C(\C1CC1)/c1ccccc1)CCN1C[C@@H](CCC1)C(O)=O]
Second: CC(C)C/C(=N/OCCN1CCC[C@@H](C(=O)O)C1)c1ccccc1 [An_2001/6_15, O(\N=C(\CC(C)C)/c1ccccc1)CCN1C[C@@H](CCC1)C(O)=O]
The pIC50 of the first is lower: 5.907 for the first, 6.553 for the second.

Same assay, conditions: literature data set; ref 10.1021/jm980492e; cited from earlier work

First: O=C(O)C1=CCCN(CCOCCC(c2ccccc2)c2ccccc2)C1 [An_1999/4_30, O(CCC(c1ccccc1)c1ccccc1)CCN1CC(=CCC1)C(O)=O]
Second: Cc1ccccc1[C@H](CCOCCN1CCC[C@@H](C(=O)O)C1)c1ccccc1 [An_1999/4_(R)-31, O(CC[C@@H](c1ccccc1C)c1ccccc1)CCN1C[C@@H](CCC1)C(O)=O]
The pIC50 of the first is higher: 7.319 for the first, 7.066 for the second.

Compared with `O=C(O)[C@@H]1CCCN(CCON=C(c2ccccc2)c2ccccc2)C1` [An_1999/4_(R)-7, O(\N=C(\c1ccccc1)/c1ccccc1)CCN1C[C@@H](CCC1)C(O)=O], `O=C(O)[C@@H]1CCCN(CCOCC=C(c2ccccc2)c2ccccc2)C1` [An_1999/4_(R)-21, O(CCN1C[C@@H](CCC1)C(O)=O)C\C=C(\c1ccccc1)/c1ccccc1] is lower in pIC50: 6.863 for the first, 6.585 for the second.

Compared with `O=C(O)[C@@H]1CCCN(CCCN(c2ccccc2)c2ccccc2)C1` [An_1999/4_(R)-10, OC(=O)[C@@H]1CCCN(C1)CCCN(c1ccccc1)c1ccccc1], `O=C(O)[C@@H]1CCCN(CCCCN(c2ccccc2)c2ccccc2)C1` [An_1999/4_(R)-11, OC(=O)[C@@H]1CCCN(C1)CCCCN(c1ccccc1)c1ccccc1] is higher in pIC50: 5.046 for the first, 5.585 for the second.

First: O=C(O)[C@@H]1CCCN(CCCCCN(c2ccccc2)c2ccccc2)C1 [An_1999/4_(R)-12, OC(=O)[C@@H]1CCCN(C1)CCCCCN(c1ccccc1)c1ccccc1]
Second: O=C(O)[C@@H]1CCCN(CCCCCCN(c2ccccc2)c2ccccc2)C1 [An_1999/4_(R)-13, OC(=O)[C@@H]1CCCN(C1)CCCCCCN(c1ccccc1)c1ccccc1]
The pIC50 of the first is lower: 5.86 for the first, 6.18 for the second.

First: O=C(O)[C@@H]1CCCN(CCCCCCCN(c2ccccc2)c2ccccc2)C1 [An_1999/4_(R)-14]
Second: O=C(O)[C@@H]1CCCN(CCCCCCCCN(c2ccccc2)c2ccccc2)C1 [An_1999/4_(R)-15]
The pIC50 of the first is higher: 6.638 for the first, 5.889 for the second.

Going from `O=C(O)[C@@H]1CCCN(CCCCCCCC(=O)N(c2ccccc2)c2ccccc2)C1` [An_1999/4_(R)-16] to `O=C(O)[C@@H]1CCCN(CCCCOCCN(c2ccccc2)c2ccccc2)C1` [An_1999/4_(R)-18, O(CCCCN1C[C@@H](CCC1)C(O)=O)CCN(c1ccccc1)c1ccccc1], the pIC50 rises from 5.046 to 6.523.

Compared with `O=C(O)[C@@H]1CCCN(CCOCCN(c2ccccc2)c2ccccc2)C1` [An_1999/4_(R)-17, O(CCN1C[C@@H](CCC1)C(O)=O)CCN(c1ccccc1)c1ccccc1], `O=C(O)[C@@H]1CCCN(CCOCCOCCN(c2ccccc2)c2ccccc2)C1` [An_1999/4_(R)-20, O(CCN1C[C@@H](CCC1)C(O)=O)CCOCCN(c1ccccc1)c1ccccc1] is lower in pIC50: 7.046 for the first, 5.046 for the second.

`O=C(O)[C@@H]1CCCN(CCCOCCCN(c2ccccc2)c2ccccc2)C1` [An_1999/4_(R)-19, O(CCCN1C[C@@H](CCC1)C(O)=O)CCCN(c1ccccc1)c1ccccc1] and `O=C(O)[C@@H]1CCCN(CCCCC=C(c2ccccc2)c2ccccc2)C1` [An_1999/4_(R)-27, OC(=O)[C@@H]1CCCN(C1)CCCC\C=C(\c1ccccc1)/c1ccccc1] are within 0.2 log units of each other in pIC50: 5.523 for the first, 5.646 for the second.

First: Cc1ccccc1/C(=C/COCCN1CCC[C@@H](C(=O)O)C1)c1ccccc1 [An_1999/4_(R)-22, O(CCN1C[C@@H](CCC1)C(O)=O)C\C=C(\c1ccccc1C)/c1ccccc1]
Second: Cc1ccccc1C(=CCOCCN1CCC[C@@H](C(=O)O)C1)c1ccccc1C [An_1999/4_(R)-23, O(CCN1C[C@@H](CCC1)C(O)=O)C\C=C(\c1ccccc1C)/c1ccccc1C]
The pIC50 of the first is lower: 6.62 for the first, 6.959 for the second.

Compared with `Cc1ccccc1C(=CCOCCCN1CCC[C@@H](C(=O)O)C1)c1ccccc1C` [An_1999/4_(R)-24, O(CCCN1C[C@@H](CCC1)C(O)=O)C\C=C(\c1ccccc1C)/c1ccccc1C], `Cc1ccccc1C(CCOCCN1CCC[C@@H](C(=O)O)C1)c1ccccc1C` [An_1999/4_(R)-32, O(CCC(c1ccccc1C)c1ccccc1C)CCN1C[C@@H](CCC1)C(O)=O] is lower in pIC50: 7.097 for the first, 6.444 for the second.

`O=C(O)[C@@H]1CCCN(CCOCC=C(c2ccc(Cl)cc2)c2ccc(Cl)cc2)C1` [An_1999/4_(R)-25, Clc1ccc(cc1)\C(=C\COCCN1C[C@@H](CCC1)C(O)=O)\c1ccc(Cl)cc1] and `O=C(O)[C@@H]1CCCN(CCOCC=C(c2ccc(F)cc2)c2ccc(F)cc2)C1` [An_1999/4_(R)-26, Fc1ccc(cc1)\C(=C\COCCN1C[C@@H](CCC1)C(O)=O)\c1ccc(F)cc1] are within 0.2 log units of each other in pIC50: 6.018 for the first, 5.836 for the second.

Going from `O=C(O)[C@@H]1CCCN(CCCCCCC=C(c2ccccc2)c2ccccc2)C1` [An_1999/4_(R)-28, OC(=O)[C@@H]1CCCN(C1)CCCCCC\C=C(\c1ccccc1)/c1ccccc1] to `CN(CCC(c1ccccc1)c1ccccc1)CCN1CCC[C@@H](C(=O)O)C1` [An_1999/4_(R)-35, OC(=O)[C@@H]1CCCN(C1)CCN(CCC(c1ccccc1)c1ccccc1)C], the pIC50 falls from 5.866 to 5.244.

For `O=C(O)[C@@H]1CCCN(CCOCCC(c2ccc(F)cc2)c2ccc(F)cc2)C1` [An_1999/4_(R)-33, Fc1ccc(cc1)C(CCOCCN1C[C@@H](CCC1)C(O)=O)c1ccc(F)cc1], the pIC50 is listed as 6.167.

Same assay, conditions: literature data set; ref 10.1021/jm981027k; cited from earlier work

In the case of `O=C(O)[C@@H]1CCCN(CCOC=C(c2cccc(Cl)c2)c2cccc(Cl)c2)C1` [An_1999/3_112, Clc1cc(ccc1)\C(=C\OCCN1C[C@@H](CCC1)C(O)=O)\c1cc(Cl)ccc1], the pIC50 is listed as 6.699.

Same assay, conditions: literature data set; ref 10.1021/jm990513k; cited from earlier work

Going from `O=C(O)[C@@H]1CCCN(CCON=C2c3ccccc3CCc3ccccc32)C1` [An_2001/5_16, O(\N=C/1\c2c(CCc3c\1cccc3)cccc2)CCN1C[C@@H](CCC1)C(O)=O] to `O=C(O)[C@@H]1CCCN(CCOC=C2c3ccccc3CCc3ccccc32)C1` [An_2001/5_18, O(\C=C/1\c2c(CCc3c\1cccc3)cccc2)CCN1C[C@@H](CCC1)C(O)=O], the pIC50 falls from 5.936 to 5.662.

Compared with `O=C(O)[C@@H]1CCCN(CCON=C2c3cc(Cl)ccc3CCc3ccc(Cl)cc32)C1` [An_2001/5_17, Clc1cc\2c(CCc3c(cc(Cl)cc3)/C/2=N\OCCN2C[C@@H](CCC2)C(O)=O)cc1], `O=C(O)[C@@H]1CCCN(CCOCCN2c3cc(Cl)ccc3CCc3ccc(Cl)cc32)C1` [An_2001/5_28, Clc1cc2N(c3cc(Cl)ccc3CCc2cc1)CCOCCN1C[C@@H](CCC1)C(O)=O] is higher in pIC50: 5.259 for the first, 7.155 for the second.

Going from `O=C(O)[C@@H]1CCCN(CCOCCn2c3ccccc3c3ccccc32)C1` [An_2001/5_19, O(CCN1C[C@@H](CCC1)C(O)=O)CCn1c2c(c3c1cccc3)cccc2] to `O=C(O)[C@@H]1CCCN(CCOCCN2c3ccccc3Oc3ccccc32)C1` [An_2001/5_20, O1c2c(N(c3c1cccc3)CCOCCN1C[C@@H](CCC1)C(O)=O)cccc2], the pIC50 rises from 4.398 to 5.836.

Going from `O=C(O)[C@@H]1CCCN(CCOCCN2c3ccccc3Sc3ccccc32)C1` [An_2001/5_21, S1c2c(N(c3c1cccc3)CCOCCN1C[C@@H](CCC1)C(O)=O)cccc2] to `O=C(O)[C@H]1CCCN(CCOCCN2c3ccccc3Sc3ccc(C(F)(F)F)cc32)C1` [An_2001/5_22, S1c2c(N(c3c1cccc3)CCOCCN1C[C@H](CCC1)C(O)=O)cc(cc2)C(F)(F)F], the pIC50 rises from 6.509 to 6.979.

First: O=C(O)[C@@H]1CCCN(CCOCCN2c3ccccc3CCc3ccccc32)C1 [An_2001/5_23, O(CCN1C[C@@H](CCC1)C(O)=O)CCN1c2c(CCc3c1cccc3)cccc2]
Second: O=C(O)[C@@H]1CCCN(CCOCCCN2c3ccccc3CCc3ccccc32)C1 [An_2001/5_32, O(CCCN1c2c(CCc3c1cccc3)cccc2)CCN1C[C@@H](CCC1)C(O)=O]
The pIC50 of the first is higher: 6.745 for the first, 6.155 for the second.

Going from `O=C(O)C1=CCCN(CCOCCN2c3ccccc3CCc3ccccc32)C1` [An_2001/5_24, O(CCN1CC(=CCC1)C(O)=O)CCN1c2c(CCc3c1cccc3)cccc2] to `O=C(O)C1=CCCN(CCOCCC2c3ccccc3CCc3ccccc32)C1` [An_2001/5_38, O(CCC1c2c(CCc3c1cccc3)cccc2)CCN1CC(=CCC1)C(O)=O], the pIC50 falls from 6.194 to 5.921.

`O=C(O)[C@@H]1CCCN(CCOCCN2c3ccccc3C=Cc3ccccc32)C1` [An_2001/5_26, O(CCN1C[C@@H](CCC1)C(O)=O)CCN1c2c(C=Cc3c1cccc3)cccc2] and `O=C(O)[C@@H]1CCCN(CCOCCN2c3ccccc3CCCc3ccccc32)C1` [An_2001/5_33, O(CCN1C[C@@H](CCC1)C(O)=O)CCN1c2c(CCCc3c1cccc3)cccc2] are within 0.2 log units of each other in pIC50: 6.187 for the first, 6.071 for the second.

Compared with `O=C(O)[C@@H]1CCCN(CCOCCN2c3ccccc3CCc3ccc(Cl)cc32)C1` [An_2001/5_27, Clc1cc2N(c3c(CCc2cc1)cccc3)CCOCCN1C[C@@H](CCC1)C(O)=O], `O=C(O)[C@@H]1CCCN(CCOCCN2c3ccccc3CCc3ccc(F)cc32)C1` [An_2001/5_29, Fc1cc2N(c3c(CCc2cc1)cccc3)CCOCCN1C[C@@H](CCC1)C(O)=O] is lower in pIC50: 7.155 for the first, 6.577 for the second.

Compared with `O=C(O)[C@@H]1CCCN(CCOCCN2c3ccc(F)cc3CCc3cc(F)ccc32)C1` [An_2001/5_30, Fc1cc2CCc3cc(F)ccc3N(c2cc1)CCOCCN1C[C@@H](CCC1)C(O)=O], `O=C(O)[C@@H]1CCCN(CCOCCN2c3ccc(Br)cc3CCc3cc(Br)ccc32)C1` [An_2001/5_31, Brc1cc2CCc3cc(Br)ccc3N(c2cc1)CCOCCN1C[C@@H](CCC1)C(O)=O] is lower in pIC50: 6.602 for the first, 5.987 for the second.

Going from `O=C(O)[C@@H]1CCCN(CCOCC=C2c3ccccc3CCc3ccccc32)C1` [An_2001/5_34, O(CCN1C[C@@H](CCC1)C(O)=O)C\C=C/1\c2c(CCc3c\1cccc3)cccc2] to `O=C(O)[C@@H]1CCCN(CCCOCC=C2c3ccccc3CCc3ccccc32)C1` [An_2001/5_36, O(CCCN1C[C@@H](CCC1)C(O)=O)C\C=C/1\c2c(CCc3c\1cccc3)cccc2], the pIC50 rises from 6.114 to 6.337.

Compared with `O=C(O)[C@@H]1CCCN(CCOC/C=C2\c3ccccc3CCc3ccc(Cl)cc32)C1` [An_2001/5_35, Clc1cc\2c(CCc3c(cccc3)/C/2=C\COCCN2C[C@@H](CCC2)C(O)=O)cc1], `O=C(O)[C@@H]1CCCN(CCOCCC2c3ccccc3CCc3ccccc32)C1` [An_2001/5_37, O(CCC1c2c(CCc3c1cccc3)cccc2)CCN1C[C@@H](CCC1)C(O)=O] is higher in pIC50: 5.603 for the first, 6.252 for the second.
